# Experimental data: patent US20250340551A1, “SMALL MOLECULE MODULATORS OF STAT6” (Gilead Sciences, Inc., priority 2024, published 2025)
# Target: human STAT6 (Homo sapiens (Human), UniProt P42226)
# Assay: Surface plasmon resonance assay (Biacore 8K, binding to immobilized STAT6)
# Details: human STAT6 aa122-658, N-terminal His-tag, CM5 chip, 25° C.; geometric mean; read-out: STAT6 SPR Kd
# In short: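 Run at 25° C with His-tagged STAT6 aa122-658 (insect-cell expressed) amine-coupled to a CM5 chip, reference-subtracted, in PBS-P+ with 2% DMSO. Multi-cycle kinetics: 60 sec. contact, up to 300 sec. dissociation. Affinity fitted from late report-point binding isotherms, with Rmax both free and fixed to theoretical 1:1.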
# Sequence of human STAT6 (P42226 122-658): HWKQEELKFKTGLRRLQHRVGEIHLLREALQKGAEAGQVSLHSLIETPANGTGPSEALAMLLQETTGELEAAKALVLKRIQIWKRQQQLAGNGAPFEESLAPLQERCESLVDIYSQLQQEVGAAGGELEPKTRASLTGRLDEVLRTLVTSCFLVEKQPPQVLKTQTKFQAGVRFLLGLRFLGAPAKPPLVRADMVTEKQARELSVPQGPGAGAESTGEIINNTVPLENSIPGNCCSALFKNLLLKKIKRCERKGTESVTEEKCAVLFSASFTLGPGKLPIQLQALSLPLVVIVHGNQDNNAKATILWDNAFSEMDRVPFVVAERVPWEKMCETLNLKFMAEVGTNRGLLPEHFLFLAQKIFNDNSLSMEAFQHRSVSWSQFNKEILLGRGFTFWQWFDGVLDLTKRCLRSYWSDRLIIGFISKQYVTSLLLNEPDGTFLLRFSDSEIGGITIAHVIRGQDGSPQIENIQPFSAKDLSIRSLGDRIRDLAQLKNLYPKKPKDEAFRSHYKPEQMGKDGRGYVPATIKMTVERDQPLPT
row,Compound,Kd [nM]
1,"CN(C)C(=O)c1ccc(C2CCN(Cc3cc4c(-c5cnc(N)c(-c6nnn[nH]6)c5)ccnc4n3C)CC2)cc1 [Example 1k64, 4-[1-[[4-[6-Amino-5-(2H-tetrazol-5-yl)-3-pyridyl]-1-methyl-pyrrolo[2,3-b]pyridin-2-yl]methyl]-4-piperidyl]-N,N-dimethyl-benzamide]",1700
2,"Cc1cc(N)nc(C)c1-c1ccnc2c1cc(CN1CCC(c3ccc(C(=O)N(C)C)cc3)CC1)n2C [Example 1k65, 4-[1-[[4-(6-Amino-2,4-dimethyl-3-pyridyl)-1-methyl-pyrrolo[2,3-b]pyridin-2-yl]methyl]-4-piperidyl]-N,N-dimethyl-benzamide]",254
3,"CN(C)C(=O)c1ccc(C2CCN(Cc3cc4c(-c5ccc(N)nn5)ccnc4n3C)CC2)cc1 [Example 1k68, 4-[1-[[4-(6-Aminopyridazin-3-yl)-1-methyl-pyrrolo[2,3-b]pyridin-2-yl]methyl]-4-piperidyl]-N,N-dimethyl-benzamide]",13.5
4,"[2H]C([2H])([2H])N(C(=O)c1ccc(C2CCN(Cc3cc4c(-c5ccc(NC)cn5)ccnc4n3C)CC2)cc1)C([2H])([2H])[2H] [Example 1k70, 4-[1-[[1-methyl-4-[5-(methylamino)-2-pyridyl]pyrrolo[2,3-b]pyridin-2-yl]methyl]-4-piperidyl]-N,N-bis(trideuteriomethyl)benzamide]",51.9
5,"CN(C)C(=O)c1ccc(C2CCN(Cc3cc4c(-c5ncc(N)cc5F)ccnc4n3C)CC2)cc1 [Example 1k72, 4-[1-[[4-(5-Amino-3-fluoro-2-pyridyl)-1-methyl-pyrrolo[2,3-b]pyridin-2-yl]methyl]-4-piperidyl]-N,N-dimethyl-benzamide]",75.1
6,"CN(C)C(=O)c1ccc(C2CCN(Cc3cc4c(-c5ncc(N)cc5C(F)(F)F)ccnc4n3C)CC2)cc1 [Example 1k74, 4-[1-[[4-[5-Amino-3-(trifluoromethyl)-2-pyridyl]-1-methyl-pyrrolo[2,3-b]pyridin-2-yl]methyl]-4-piperidyl]-N,N-dimethyl-benzamide]",7290
7,"CN(C)C(=O)c1ccc(C2CCN(Cc3cc4c(-c5ccc(N)c(C#N)n5)ccnc4n3C)CC2)cc1 [Example 1k75, 4-(1-((4-(5-Amino-6-cyanopyridin-2-yl)-1-methyl-1H-pyrrolo[2,3-b]pyridin-2-yl)methyl)piperidin-4-yl)-N,N-dimethylbenzamide]",83.9
8,"CN(C)C(=O)c1ccc(C2CCN(Cc3cc4c(-c5ccc(N)c(C(F)(F)F)n5)ccnc4n3C)CC2)cc1 [Example 1k76, 4-[1-[[4-[5-Amino-6-(trifluoromethyl)-2-pyridyl]-1-methyl-pyrrolo[2,3-b]pyridin-2-yl]methyl]-4-piperidyl]-N,N-dimethyl-benzamide]",999
9,"CN(C)C(=O)c1ccc(C2CCN(Cc3cc4c(-c5ccc(N)c(Cl)n5)ccnc4n3C)CC2)cc1 [Example 1k77, 4-(1-((4-(5-Amino-6-chloropyridin-2-yl)-1-methyl-1H-pyrrolo[2,3-b]pyridin-2-yl)methyl)piperidin-4-yl)-N,N-dimethylbenzamide]",52.3
10,"CCOC(=O)c1nc(-c2ccnc3c2cc(CN2CCC(c4ccc(C(=O)N(C)C)cc4)CC2)n3C)ccc1N [Example 1k78, Ethyl 3-amino-6-(2-((4-(4-(dimethylcarbamoyl)phenyl)piperidin-1-yl)methyl)-1-methyl-1H-pyrrolo[2,3-b]pyridin-4-yl)picolinate]",59.3
11,"CN(C)C(=O)c1ccc(C2CCN(Cc3cc4c(-c5ccc(N)c(C#N)c5)ccnc4n3C)CC2)cc1 [Example 1k80, 4-(1-((4-(4-Amino-3-cyanophenyl)-1-methyl-1H-pyrrolo[2,3-b]pyridin-2-yl)methyl)piperidin-4-yl)-N,N-dimethylbenzamide]",52.1
12,"CN(C)C(=O)c1ccc(C2CCN(Cc3cc4c(-c5ccc6[nH]cc(C(=O)C(F)(F)F)c6c5)ccnc4n3C)CC2)cc1 [Example 1m145, N,N-dimethyl-4-(1-((1-methyl-4-(3-(2,2,2-trifluoroacetyl)-1H-indol-5-yl)-1H-pyrrolo[2,3-b]pyridin-2-yl)methyl)piperidin-4-yl)benzamide]",253
13,"C[C@@H]1CN(c2ccc(C(=O)N(C)C)cc2)CCN1Cc1cc2c(-c3ccc(N)nc3)ccnc2n1C [Example 1n4, 4-[(3R)-4-[[4-(6-amino-3-pyridyl)-1-methyl-pyrrolo[2,3-b]pyridin-2-yl]methyl]-3-methyl-piperazin-1-yl]-N,N-dimethyl-benzamide]",147
14,"C[C@H]1CN(c2ccc(C(=O)N(C)C)cc2)CCN1Cc1cc2c(-c3ccc(N)nc3)ccnc2n1C [Example 1n5, 4-[(3S)-4-[[4-(6-Amino-3-pyridyl)-1-methyl-pyrrolo[2,3-b]pyridin-2-yl]methyl]-3-methyl-piperazin-1-yl]-N,N-dimethyl-benzamide]",68.6
15,"CNc1ccc(-c2ccnc3c2cc(CN2CCN(c4ccc(C(=O)N(C)C)cn4)CC2)n3C)cn1 [Example 1n7, N,N-Dimethyl-6-[4-[[1-methyl-4-[6-(methylamino)-3-pyridyl]pyrrolo[2,3-b]pyridin-2-yl]methyl]piperazin-1-yl]pyridine-3-carboxamide]",1040
16,"CNc1cc(C)c(-c2ccnc3c2cc(CN2CCN(c4ccc(C(=O)N(C)C)cc4)CC2)n3C)cn1 [Example 1n8, N,N-Dimethyl-4-[4-[[1-methyl-4-[4-methyl-6-(methylamino)-3-pyridyl]pyrrolo[2,3-b]pyridin-2-yl]methyl]piperazin-1-yl]benzamide]",2600
17,"CNc1ccc(-c2ccnc3c2cc(CN2CCN(c4ccc(C(=O)N(C)C)cn4)CC2)n3C)nc1 [Example 1n9, N,N-Dimethyl-6-[4-[[1-methyl-4-[5-(methylamino)-2-pyridyl]pyrrolo[2,3-b]pyridin-2-yl]methyl]piperazin-1-yl]pyridine-3-carboxamide]",8920
18,"CNc1ccc(-c2ccnc3c2cc(CN2CCC(F)(c4ccc(C(=O)N(C)C)cc4)CC2)n3C)nc1 [Example 1o19, 4-[4-Fluoro-1-[[1-methyl-4-[5-(methylamino)-2-pyridyl]pyrrolo[2,3-b]pyridin-2-yl]methyl]-4-piperidyl]-N,N-dimethyl-benzamide]",173
19,"CNc1ccc(-c2ccnc3c2cc([C@@H](C)N2CCC(c4ccc(C(=O)N(C)C)cc4)CC2)n3C)nc1 [Example 1o25, (R)—N,N-dimethyl-4-(1-(1-(1-methyl-4-(5-(methyl-amino)pyridin-2-yl)-1H-pyrrolo[2,3-b]pyridin-2-yl)ethyl)piperidin-4-yl)benzamide]",1350
20,"CNc1ccc(-c2ccnc3c2cc(CN2CC[C@H](c4ccc(C(=O)N(C)C)cc4)C[C@@H]2C)n3C)nc1 [Example 1o27, N,N-dimethyl-4-((2S,4S)-2-methyl-1-((1-methyl-4-(5-(methylamino)-pyridin-2-yl)-1H-pyrrolo[2,3-b]pyridin-2-yl)methyl)piperidin-4-yl)benzamide]",147
21,"CNc1ccc(-c2ccnc3c2cc(CN2CCC(c4ccc(C(=O)N(C)C)cn4)CC2)n3C)nn1 [Example 1p5, N,N-Dimethyl-6-[1-[[1-methyl-4-[6-(methylamino)pyridazin-3-yl]pyrrolo[2,3-b]pyridin-2-yl]methyl]-4-piperidyl]pyridine-3-carboxamide]",148
22,"CC(=O)Nc1ccc(-c2ccnc3c2cc(CN2CC[C@H](c4ccc(C(=O)N(C)C)cc4)[C@H](F)C2)n3C)cc1 [Example 1r5, N,N-Dimethyl-4-[(3S,4R)-1-[[4-(4-acetamidophenyl)-1-methyl-pyrrolo[2,3-b]pyridin-2-yl]methyl]-3-fluoro-4-piperidyl]benzamide]",110
23,"CNc1ccc(-c2ccnc3c2cc(CN2CCN(c4ccc(C(=O)N(C)C)cc4)CC2=O)n3C)cn1 [Example 1s5, N,N-Dimethyl-4-[4-[[1-methyl-4-[6-(methylamino)-3-pyridyl]pyrrolo[2,3-b]pyridin-2-yl]methyl]-3-oxo-piperazin-1-yl]benzamide]",70.6
24,"CNc1ccc(-c2ccnc3c2cc(CN2CCC(n4ccc(C(=O)N(C)C)cc4=O)CC2)n3C)cn1 [Example 1s6, N,N-Dimethyl-1-[1-[[1-methyl-4-[6-(methylamino)-3-pyridyl]pyrrolo[2,3-b]pyridin-2-yl]methyl]-4-piperidyl]-2-oxo-pyridine-4-carboxamide]",595
25,"CNc1ccc(-c2ccnc3c2cc(CN2CCC(c4ccc(C(=O)N(C)C)cc4C)CC2)n3C)cn1 [Example 1s9, N,N,3-Trimethyl-4-[1-[[1-methyl-4-[6-(methylamino)-3-pyridyl]pyrrolo[2,3-b]pyridin-2-yl]methyl]-4-piperidyl]benzamide]",48.1
26,"CNc1ccc(-c2ccnc3c2cc(CN2CC=C(c4ccc(C(=O)N(C)C)cn4)CC2)n3C)cn1 [Example 1s11, N,N-Dimethyl-6-[1-[[1-methyl-4-[6-(methylamino)-3-pyridyl]pyrrolo[2,3-b]pyridin-2-yl]methyl]-3,6-dihydro-2H-pyridin-4-yl]pyridine-3-carboxamide]",133
27,"CNc1ccc(-c2ccnc3c2cc(CN2CCC(c4ncc(C(=O)N(C)C)cc4C)CC2)n3C)cn1 [Example 1s15, N,N,5-Trimethyl-6-[1-[[1-methyl-4-[6-(methylamino)-3-pyridyl]pyrrolo[2,3-b]pyridin-2-yl]methyl]-4-piperidyl]pyridine-3-carboxamide]",119
28,"CNc1ccc(-c2ccnc3c2cc(CN2CCC(F)(c4ccc(C(=O)N(C)C)cc4)CC2)n3C)cn1 [Example 1s26, 4-[4-Fluoro-1-[[1-methyl-4-[6-(methylamino)-3-pyridyl]pyrrolo[2,3-b]pyridin-2-yl]methyl]-4-piperidyl]-N,N-dimethyl-benzamide]",61.6
29,"CCS(=O)(=O)n1c(CN2CCC(c3ccc(C(=O)N(C)C)cc3)CC2)cc2c(-c3ccc(NC)nc3)ccnc21 [Example 1x2, 4-[1-[[1-Ethylsulfonyl-4-[6-(methylamino)-3-pyridyl]pyrrolo[2,3-b]pyridin-2-yl]methyl]-4-piperidyl]-N,N-dimethyl-benzamide]",54.1
